In brackets after ≈: the same amount, converted by molar mass. Ends that are not written are not given here.
Tests used:
E. coli AIC222 = assay: microbe, parasite or virus in culture; type: cell-based; details: Escherichia coli, AIC222, 24 h, read-out: Minimal Inhibitory Concentration, E. coli AIC222 - CRE (-)
Experimental: (§1) Figure 4. […] Briefly, 10[5] bacterial cells were incubated with serially diluted peptides (0–64 μmol L^−1) at 37 °C. Bacterial growth was assessed by measuring the optical density at 600 nm in a microplate reader one day post-treatment.

E. cloacae ATCC 13047 = assay: microbe, parasite or virus in culture; details: Enterobacter cloacae, ATCC13047, 24 h, read-out: Minimal Inhibitory Concentration, E. cloacae ATCC 13047 (-)
Experimental: as §1

[1] = tested on: A. baumannii ATCC BAA-1605; assay: microbe, parasite or virus in culture; details: Acinetobacter baumannii, ATCCBAA1605, 24 h, read-out: Minimal Inhibitory Concentration, A. baumannii ATCC BAA-1605 (-) - CGTPACCIMRA
Experimental: as §1

E. coli ATCC BAA-3170 = assay: microbe, parasite or virus in culture; details: Escherichia coli, ATCCBAA3170, 24 h, read-out: Minimal Inhibitory Concentration, E. coli ATCC BAA-3170 (-) - CRE
Experimental: as §1

K. pneumoniae ATCC 13883 = assay: microbe, parasite or virus in culture; details: Klebsiella pneumoniae, ATCC13883, 24 h, read-out: Minimal Inhibitory Concentration, K. pneumoniae ATCC 13883 (-)
Experimental: as §1

P. aeruginosa PA14 = assay: microbe, parasite or virus in culture; details: Pseudomonas aeruginosa, PA14, 24 h, read-out: Minimal Inhibitory Concentration, P. aeruginosa PA14 (-)
Experimental: as §1

S. enterica ATCC 9150 = assay: microbe, parasite or virus in culture; details: Salmonella enterica, ATCC9150, 24 h, read-out: Minimal Inhibitory Concentration, S. enterica ATCC 9150 (-)
Experimental: as §1

[2] = tested on: K. pneumoniae ATCC BAA-2342; assay: microbe, parasite or virus in culture; details: Klebsiella pneumoniae, ATCCBAA2342, 24 h, read-out: Minimal Inhibitory Concentration, K. pneumoniae ATCC BAA-2342 (-) - EIRK
Experimental: as §1

E. coli ATCC 11775 = assay: microbe, parasite or virus in culture; details: Escherichia coli, ATCC11775, 24 h, read-out: Minimal Inhibitory Concentration, E. coli ATCC 11775 (-)
Experimental: as §1

E. coli K-12 BW25113 = assay: microbe, parasite or virus in culture; details: Escherichia coli, BW25113, 24 h, read-out: Minimal Inhibitory Concentration, E. coli K-12 BW25113 (-)
Experimental: as §1

A. baumannii ATCC 19606 [3] = assay: microbe, parasite or virus in culture; details: Acinetobacter baumannii, ATCC19606, 24 h, read-out: Minimal Inhibitory Concentration, A. baumannii ATCC 19606 (-)
Experimental: as §1

P. aeruginosa PAO1 = assay: microbe, parasite or virus in culture; details: Pseudomonas aeruginosa, PAO1, 24 h, read-out: Minimal Inhibitory Concentration, P. aeruginosa PAO1 (-)
Experimental: as §1

[4] = tested on: S. aureus ATCC BAA-1556 (MRSA); assay: microbe, parasite or virus in culture; details: Staphylococcus aureus, ATCCBAA1556|MRSA, 24 h, read-out: Minimal Inhibitory Concentration, S. aureus ATCC BAA-1556 - MRSA (+)
Experimental: as §1

S. aureus ATCC 12600 = assay: microbe, parasite or virus in culture; details: Staphylococcus aureus, ATCC12600, 24 h, read-out: Minimal Inhibitory Concentration, S. aureus ATCC 12600 (+)
Experimental: as §1

[5] = tested on: S. enterica Typhimurium ATCC 700720; assay: microbe, parasite or virus in culture; details: Salmonella enterica, ATCC700720|TYPHIMURIUM, 24 h, read-out: Minimal Inhibitory Concentration, S. enterica Typhimurium ATCC 700720
Experimental: as §1

E. coli AIC221 = assay: MIC, broth microdilution; type: cell-based; details: Escherichia coli, AIC221, 24 h, read-out: Minimal Inhibitory Concentration, E. coli AIC221 (-)
Experimental: Figure 4. Antimicrobial activity of APEX-predicted AllTheBacteria peptides. Heat map displaying the antimicrobial activities (μmol L^−1) of ATB peptides (rows) against 20 clinically relevant pathogens (columns) , including antibiotic-resistant strains. Briefly, 10[5] bacterial cells were incubated with serially diluted peptides (0–64 μmol L^−1) at 37 °C. Bacterial growth was assessed by measuring the optical density at 600 nm in a microplate reader one day post-treatment.

[6] = tested on: E. faecalis ATCC 700802 (VRE); assay: MIC, broth microdilution; type: cell-based; details: Enterococcus faecalis, 24 h, Fig. 4 heat map, vancomycin-resistant, LB, 0–64 μmol L^−1, 37 °C, one day, OD600, mode of replicates, read-out: Minimal Inhibitory Concentration, E. faecalis ATCC 700802 - VRE (+)
Experimental: as §1

B. subtilis ATCC 23857 = assay: MIC, broth microdilution; type: cell-based; details: Bacillus subtilis, ATCC23857, 24 h, Fig. 4 heat map, LB, 0–64 μmol L^−1, 37 °C, one day, OD600, mode of replicates, read-out: Minimal Inhibitory Concentration, B. subtilis ATCC 23857 (+)
Experimental: as §1

[7] = tested on: 20 clinically relevant Gram-negative and Gram-positive bacterial strains; assay: Antibacterial profiling across the panel; type: cell-based; details: in words; 20-strain MIC panel
From the text: We first compared the predicted AllTheBacteria (here abbreviated ATB) peptides with antimicrobial peptides curated in widely used databases (see Supp. Note 3, Supp. Figs 10-13). ATB peptides were enriched in basic residues, particularly lysine and arginine, and many also contained hydrophobic or aromatic residues, including leucine, isoleucine, and tryptophan. These features are consistent with electrostatic engagement of bacterial envelopes and potential membrane interaction. From this prioritized pool, we selected 24 peptides (Supp. Table 1) for chemical synthesis and experimental validation. The selected panel included highly cationic low-complexity sequences, mixed hydrophobic–cationic architectures and tryptophan-rich motifs, allowing us to test whether distinct classes of ATB-derived encrypted peptides translate into antibacterial activity. The 24 synthesized peptides were profiled against 20 clinically relevant Gram-negative and Gram-positive bacterial strains, including antibiotic-resistant ones (Fig. 4). Antibacterial activity was most pronounced against Gram-negative species, including Acinetobacter baumannii, Escherichia coli, Enterobacter cloacae, Klebsiella pneumoniae, and Pseudomonas aeruginosa.
Figure 4. […] Bacterial growth was assessed by measuring the optical density at 600 nm in a microplate reader one day post-treatment.

[8] = tested on: human embryonic kidney (HEK293T) cells; details: 24 h
Experimental: The cells were cultured in high-glucose Dulbecco’s modified Eagle’s medium supplemented with 1% penicillin and streptomycin (antibiotics) and 10% fetal bovine serum and grown at 37 °C in a humidified atmosphere containing 5% CO2.
One day prior to the experiment, 100 μL aliquots of human embryonic kidney (HEK293T) cells, at a concentration of 50,000 cells per mL, were seeded into each well of 96-well plates (5,000 cells per well). Following cell attachment, the HEK293T cells were treated with increasing concentrations of peptides (ranging from 8 to 128 μmol L^−1) and incubated for 24 h. After the exposure period, cytotoxicity was assessed using the 3-(4,5-dimethylthiazol-2-yl)-2,5-diphenyltetrazolium bromide (MTT) assay. Specifically, the MTT reagent was prepared at a concentration of 0.5 mg mL^−1 in phenol red-free medium and used to replace the peptide-containing supernatants (100 μL per well). The plates were then incubated for 4 h at 37 °C in a humidified atmosphere with 5% CO2, facilitating the formation of insoluble formazan crystals. These crystals were subsequently dissolved in 0.04 mol L^−1 hydrochloric acid prepared in anhydrous isopropanol. Absorbance was measured at 570 nm using a spectrophotometer to quantify cell viability. All experiments were conducted in triplicate (three biological replicates).
To evaluate the safety profile of the ATB peptides, we measured their cytotoxicity against human embryonic kidney (HEK293T) cells using a 3-(4,5-dimethylthiazol-2-yl)-2,5-diphenyltetrazolium bromide (MTT) viability assay and determined half-maximal cytotoxic concentrations (CC50). […]
index as the ratio CC50 (HEK293T) / MIC against A. baumannii ATCC 19606.

[9] = Mouse weight monitoring in skin abscess model; type: in vivo; details: CD-1 mice, 4 days total, single topical dose at 10×MIC, in words
Experimental: (§2) Figure 5. Anti-infective activity of a lead ATB peptide in a murine infection model. […] The limit of detection (LOD) for the CFU quantification is log10 CFU = 2. Bacterial burdens are shown as violin plots with individual data points overlaid; each point represents one animal. The horizontal line within each violin indicates the mean, and violin width reflects the distribution of values within each group. Statistical comparisons were performed separately for each time point using ordinary one-way ANOVA followed by Dunnett’s two-sided multiple comparisons test versus the control group. Exact p-values are shown above the indicated comparisons. (Panel a created in BioRender.)
The back of six-week-old female CD-1 mice under anesthesia were shaved and injured with a superficial linear skin abrasion made with a needle. An aliquot of A. baumannii ATCC 19606 (1.1×10^6 CFU mL^−1; […]) previously grown in LB medium until 0.5 OD mL^−1 (optical value at 600 nm) and then washed twice with sterile PBS (pH 7.4, 9,391 ģ for 3 min) was added to the scratched area. […] Two- and four-days post-infection, animals were euthanized, and a uniform excision of the scarified skin was excised, homogenized using a bead beater (25 Hz for 20 min), 10-fold serially diluted, and plated on McConkey agar plates for CFU quantification. The experiments were performed using six mice per group. […]

A. baumannii ATCC 19606 [10] = assay: Skin abscess infection mouse model; type: in vivo, Acinetobacter baumannii; details: CD-1 mice; for reduction of bacterial burden relative to untreated controls: single topical dose at 10×MIC
Experimental: as §2
The back of six-week-old female CD-1 mice under anesthesia were shaved and injured with a superficial linear skin abrasion made with a needle. An aliquot of A. baumannii ATCC 19606 (1.1×10^6 CFU mL^−1; […]) previously grown in LB medium until 0.5 OD mL^−1 (optical value at 600 nm) and then washed twice with sterile PBS (pH 7.4, 9,391 ģ for 3 min) was added to the scratched area. […] Two- and four-days post-infection, animals were euthanized, and a uniform excision of the scarified skin was excised, homogenized using a bead beater (25 Hz for 20 min), 10-fold serially diluted, and plated on McConkey agar plates for CFU quantification. The experiments were performed using six mice per group. Mice were single-housed to avoid cross-contamination and maintained under a 12-hour light/dark cycle at 22 °C with humidity controlled at 50%. The skin abscess infection mouse model was revised and approved by the University Laboratory Animal Resources (ULAR) from the University of Pennsylvania (Protocol 806763).
In the mouse experiments, all the raw data were log10 transformed and the statistical significance was determined using one-way ANOVA followed by Dunnett’s test. All the p values are shown for each of the groups, all groups were compared to the untreated control group. […] Statistical significance between different groups was calculated using the tests indicated in each figure legend. […]

E. coli isolates = details: strain not named
Experimental: as §1

For `C[C@H]1COc2c(N3CCN(C)CC3)c(F)cc3c(=O)c(C(=O)O)cn1c23` [Levofloxacin], the MIC (E. coli AIC222) was 0.1 µM (≈ 0.0361 µg/mL), the MIC (E. cloacae ATCC 13047) was 0.1 µM (≈ 0.0361 µg/mL) and the MIC [1] was 64 µM (≈ 23.1 µg/mL). For the same compound, the MIC (E. coli ATCC BAA-3170) was 0.1 µM (≈ 0.0361 µg/mL), the MIC (K. pneumoniae ATCC 13883) was 0.1 µM (≈ 0.0361 µg/mL) and the MIC (P. aeruginosa PA14) was 0.5 µM (≈ 0.181 µg/mL). It also gave an MIC (S. enterica ATCC 9150) of 0.1 µM (≈ 0.0361 µg/mL), an MIC [2] of 0.1 µM (≈ 0.0361 µg/mL) and an MIC (E. coli ATCC 11775) of 0.1 µM (≈ 0.0361 µg/mL). The MIC (E. coli K-12 BW25113) was 0.1 µM (≈ 0.0361 µg/mL), the MIC (A. baumannii ATCC 19606 [3]) was 0.3 µM (≈ 0.108 µg/mL) and the MIC (P. aeruginosa PAO1) was 4 µM (≈ 1.45 µg/mL). It also gave an MIC [4] of 4 µM (≈ 1.45 µg/mL), an MIC (S. aureus ATCC 12600) of 4 µM (≈ 1.45 µg/mL) and an MIC [5] of 0.5 µM (≈ 0.181 µg/mL). The MIC (E. coli AIC221) was 0.1 µM (≈ 0.0361 µg/mL), the MIC [6] was 1 µM (≈ 0.361 µg/mL) and the MIC (B. subtilis ATCC 23857) was 0.1 µM (≈ 0.0361 µg/mL).
For “MKKLKIKKLKIKKLKIKKLKIKNLKIKKLKIKNLKI-OH [ATB15]”, the “antibacterial activity across the panel” value [7] was “limited measurable activity” and the “half-maximal cytotoxic concentration (CC50)” value [8] was 9 to 12 µM.
In the case of “MKLWKIVRFLALSKGAKALRKKPVRKAAASFVKSYALWKYIRRK-OH [ATB20]”, the mouse body weight [9] is reported as “remained stable”, the “time for which proliferation of the infection was inhibited after treatment” value (A. baumannii ATCC 19606 [10]; single dose at 10xMIC post-infection, compared to untreated control) is reported as “up to 4 days” and the “reduction of bacterial burden relative to untreated controls” value (A. baumannii ATCC 19606 [10]; day 4, n = 6) is reported as ~ 1.5 log. The “reduction of bacterial burden relative to untreated controls” value (A. baumannii ATCC 19606 [10]; two days after infection, n = 6) was ~ 2 log.
In the case of “MRRRGWKVRLKRRRGWKVRLMRRRGWKVRLKRRRLVLPVWA-OH [ATB9]”, the “MIC, E. coli” value (E. coli isolates) is reported as 4 µM.
